In patent US12584101B2, “Compositions and method of use for H5 competent Bifidobacterium longum subsp. Infantis” (INFINANT HEALTH, INC., priority 2018, dated 2026):

Tested on: Blon_0881 and Blon_2343
Experiment: qPCR gene expression of Blon_0881 and Blon_2343 relative to Blon_0393 (activation)
Assay type: cell-based, B. infantis
Settings: 5, 10, 15 and 20 g/L of NAG, rest glucose to 20 g/L; stationary phase
Procedure: In some embodiments, gene activation relates to Blon_0881 and Blon_2343 and their expression is greater than 1; that is, when the delta delta cycle threshold (2^ΔΔCt) is greater than 1, DDCT is calculated using Blon_0393, or another constitutively expressed gene as a reference. The result (activation) is the fold change (2^ΔΔCt>1) of gene expression. Determined based on the double delta CT (2^ΔΔCt) method (Livak K and Schmittgen T. (2001) Analysis of relative gene expression data using real-time quantitative PCR and the 2(−Delta Delta C(T)) Method. Methods: 25: 402-8). In other embodiments, other genes from Table 1 are used in addition to Blon_0881 and Blon_2343.
A series of fermentations were conducted where B. infantis was grown on various concentrations of NAG and glucose. MRS broth was prepared without a carbon source. The carbon source was added at 2% of the media or 20 g/L. The carbon source was varied according to Table 5. The cells were grown to the stationary phase and spun down. The supernatant was removed and the cells lysed. RNA was extracted. The cells were tested for increase in gene expression of Blon_0881 and Blon_2343 by qPCR relative to Blon_0393. The 2^ΔΔCt was greater than 1 confirming activation for 5, 10, 15 and 20 g/L of NAG. […]

Substance: N-acetyl-glucosamine/galactosamine (NAG)
- 2^ΔΔCt of Blon_0881 and Blon_2343 relative to Blon_0393: greater than 1
